Assay results from the supplement of paper PMC7840683.
Where a name gives a salt, the structure may show the parent alone. ± gives the standard deviation of the averaged measurements.

System: HepaRG
Experiment: LDH release cytotoxicity, % of total lysis control; higher = more cytotoxic
Settings: 48 h
In short: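 On collagen I-coated 96-well plates, single-lot HepaRG cells were exposed for 48 h, in duplicate, to eight-point half-log series of test chemicals beginning at 100 µM. The exposure medium was serum-free induction medium with 0.5% DMSO, and total lysis wells got 0.1% Triton X. Resorufin fluorescence from the CytoTox-ONE reaction, read on a Tecan Safire, reported LDH in 50 µL of spent medium. Percent cytotoxicity came from normalization to on-plate vehicle and total lysis controls, averaged over the duplicates.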

| Compound | LDH release cytotoxicity (0.03162 µM) | LDH release cytotoxicity (0.1 µM) | LDH release cytotoxicity (0.3162278 µM) | LDH release cytotoxicity (1 µM) | LDH release cytotoxicity (3.16228 µM) | LDH release cytotoxicity (10 µM) | LDH release cytotoxicity (31.6228 µM) | LDH release cytotoxicity (100 µM) | LDH release cytotoxicity (0.03305 µM) | LDH release cytotoxicity (0.1045 µM) | LDH release cytotoxicity (0.330458 µM) | LDH release cytotoxicity (1.045 µM) | LDH release cytotoxicity (3.30458 µM) | LDH release cytotoxicity (10.45 µM) | LDH release cytotoxicity (33.0458 µM) | LDH release cytotoxicity (104.5 µM) |
| --- | --- | --- | --- | --- | --- | --- | --- | --- | --- | --- | --- | --- | --- | --- | --- | --- |
| COC(=O)c1ccccc1C(=O)OC [Dimethyl phthalate] | -0.705 ± 0.12% | -1.99 ± 0.097% | -1.58 ± 0.53% | -2.6 ± 0.29% | -1.11 ± 0.29% | -0.678 ± 0.68% | -0.11 ± 0.75% | 1.18 ± 0.58% | – | – | – | – | – | – | – | – |
| COC(=O)CCC(=O)OC [Dimethyl succinate] | -1.91 ± 0.15% | -0.897 ± 0.57% | -1.76 ± 0.078% | -2.16 ± 0.17% | -1.84 ± 0.28% | -1.56 ± 0.26% | -1.39 ± 0.24% | 0.319 ± 0.33% | – | – | – | – | – | – | – | – |
| COS(=O)(=O)OC [Dimethyl sulfate] | -0.536 ± 0.23% | -0.931 ± 0.64% | -1.52 ± 1% | -1.6 ± 0.65% | -1.18 ± 0.15% | -0.291 ± 0.98% | -1.17 ± 1.2% | 3.53 ± 0.11% | – | – | – | – | – | – | – | – |
| COC(=O)c1ccc(C(=O)OC)cc1 [Dimethyl terephthalate] | 0.0234 ± 1% | -0.391 ± 1.6% | -1.12 ± 0.61% | -0.654 ± 0.052% | -0.533 ± 0.33% | 0.0948 ± 0.34% | 0.365 ± 0.88% | 2.87 ± 0.72% | – | – | – | – | – | – | – | – |
| CN(C)CCO [Dimethylaminoethanol] | 0.182 ± 0.62% | -0.302 ± 1.6% | -0.0529 ± 0.18% | -1.37 ± 0.049% | -1.09 ± 1.8% | -1.02 ± 0.62% | -0.601 ± 0.24% | 1.07 ± 0.52% | – | – | – | – | – | – | – | – |
| CN(C)C(=O)Cl [Dimethylcarbamoyl chloride] | -1.3 ± 0.049% | -0.716 ± 0.62% | -0.579 ± 0.073% | -0.789 ± 0.59% | -0.264 ± 0.42% | -0.4 ± 0.096% | -0.611 ± 0.2% | 0.647 ± 0.56% | – | – | – | – | – | – | – | – |
| CC(C)(C)C(O)C(=Cc1ccc(Cl)cc1Cl)n1cncn1 (centres undefined) [Diniconazole] | -0.57 ± 1.1% | -1.77 ± 1.1% | -0.96 ± 0.019% | -0.38 ± 0.69% | 0.433 ± 0.38% | -0.346 ± 1.4% | 0.723 ± 1.1% | 1.41 ± 0.97% | – | – | – | – | – | – | – | – |
| CCC(C)c1cc([N+](=O)[O-])cc([N+](=O)[O-])c1O (centres undefined) [Dinoseb] | -1.28 ± 0.054% | 0.378 ± 0.78% | -1.3 ± 0.076% | -1.58 ± 0.37% | -0.982 ± 1% | -0.113 ± 0.038% | 0.81 ± 0.59% | 2.87 ± 1.4% | – | – | – | – | – | – | – | – |
| CCCCCCCCOC(=O)CCCCCCCCC(=O)OCCCCCCCC [Dioctyl sebacate] | -0.979 ± 0.56% | -1.87 ± 0.14% | -1.9 ± 0.45% | -1.13 ± 0.44% | -1.59 ± 0.11% | -0.887 ± 0.82% | 5.14 ± 1.2% | 68.74 ± 0.047% | – | – | – | – | – | – | – | – |
| CCCCCOC(=O)c1ccccc1C(=O)OCCCCC [Dipentyl phthalate] | -0.338 ± 1.3% | -1.03 ± 0.79% | -1.76 ± 0.55% | -0.0572 ± 0.49% | 10.4 ± 0.42% | 55.1 ± 3.3% | 47.6 ± 0.78% | 43.3 ± 0.68% | – | – | – | – | – | – | – | – |
| CN(C)CCOC(c1ccccc1)c1ccccc1 [Diphenhydramine hydrochloride] | -0.0757 ± 0.11% | -1.04 ± 0.17% | -0.977 ± 0.34% | -1.8 ± 1.1% | -1.62 ± 0.031% | -0.793 ± 0.26% | -0.772 ± 0.23% | 1.1 ± 0.12% | – | – | – | – | – | – | – | – |
| O=C(Oc1ccccc1)c1cccc(C(=O)Oc2ccccc2)c1 [Diphenyl isophthalate] | -0.961 ± 0.23% | -0.451 ± 0.024% | -0.0836 ± 0.51% | -0.13 ± 0.26% | -0.548 ± 1.1% | -0.00904 ± 1.2% | 0.842 ± 0.83% | 2.16 ± 1.3% | – | – | – | – | – | – | – | – |
| c1ccc(Nc2ccccc2)cc1 [Diphenylamine] | -0.79 ± 0.82% | -0.775 ± 0.35% | -0.986 ± 0.56% | -1.44 ± 0.19% | -1.13 ± 0.35% | -1 ± 0.56% | 0.0424 ± 0.62% | 3.57 ± 0.064% | – | – | – | – | – | – | – | – |
| CCCOC(=O)c1ccc(C(=O)OCCC)nc1 [Dipropyl 2,5-pyridinedicarboxylate] | – | – | – | – | – | – | – | – | -4.74 ± 0.19% | -5.46 ± 0.7% | -5.78 ± 1.4% | -4.98 ± 2.6% | -5.75 ± 0.92% | -5.51 ± 1.6% | -4.96 ± 1.7% | -4.42 ± 1.1% |
| COCC(C)OCC(C)O (centres undefined) [Dipropylene glycol monomethyl ether] | -1.67 ± 0.049% | -1.92 ± 0.76% | -1.46 ± 0.17% | -1.8 ± 0.051% | -1.39 ± 0.54% | -0.852 ± 0.24% | 0.852 ± 0.72% | 0.163 ± 0.47% | – | – | – | – | – | – | – | – |
| CC(CO)OC(C)CO.CC(O)COCC(C)O (centres undefined) [Dipropylene glycol] | -0.933 ± 0.81% | -1.33 ± 0.44% | -1.72 ± 1.1% | -2.46 ± 0.3% | -1.81 ± 0.92% | -1.07 ± 0.57% | -0.766 ± 1.3% | 1.27 ± 1.3% | – | – | – | – | – | – | – | – |
| c1cc[n+]2c(c1)-c1cccc[n+]1CC2 [Diquat dibromide monohydrate] | -1.01 ± 0.048% | 0.359 ± 1.1% | 0.818 ± 0.33% | 0.472 ± 0.19% | 0.215 ± 0.51% | 1.64 ± 0.66% | -0.425 ± 0.39% | 2.13 ± 0.58% | – | – | – | – | – | – | – | – |
| CCOP(=S)(OCC)SCCSCC [Disulfoton] | -1.14 ± 0.34% | -1.12 ± 0.75% | -1.03 ± 0.2% | -1.51 ± 0.2% | -1.34 ± 0.37% | -1.32 ± 0.63% | -1.01 ± 0.54% | -0.345 ± 0.13% | – | – | – | – | – | – | – | – |
